Data from the supplement of paper PMC4628005.

Key:
Details in all cases: drug exposure time: 96 h
Sirolimus = compound: CO[C@H]1C[C@@H]2CC[C@@H](C)[C@@](O)(O2)C(=O)C(=O)N2CCCC[C@H]2C(=O)O[C@H]([C@H](C)C[C@@H]2CC[C@@H](O)[C@H](OC)C2)CC(=O)[C@H](C)/C=C(\C)[C@@H](O)[C@@H](OC)C(=O)[C@H](C)C[C@H](C)/C=C/C=C/C=C/1C [Sirolimus]
Description: (§1)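 Same SRB 96 h IC50 screen on breast cancer cell lines (RPMI 1640 + 10% FBS, collagen I-coated 96-well plates, triplicates, 12 dilutions), for drugs with a different dose range: Bortezomib up to 2e-5 M; Sirolimus and 17-AAG up to 2e-6 M. Sirolimus values at the 2e-6 M top dose are censored.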

17-AAG = compound: C=CCNC1=C2C[C@@H](C)C[C@H](OC)[C@H](O)[C@@H](C)/C=C(\C)[C@H](OC(N)=O)[C@@H](OC)/C=C\C=C(/C)C(=O)NC(=CC1=O)C2=O [17-AAG]
Description: as §1

Bortezomib = compound: CC(C)C[C@H](NC(=O)[C@H](Cc1ccccc1)NC(=O)c1cnccn1)B(O)O [Bortezomib]
Description: as §1

Docetaxel = compound: CC(=O)O[C@@]12CO[C@@H]1C[C@H](O)[C@@]1(C)C(=O)[C@H](O)C3=C(C)[C@@H](OC(=O)[C@H](O)[C@@H](NC(=O)OC(C)(C)C)c4ccccc4)C[C@@](O)([C@@H](OC(=O)c4ccccc4)[C@H]21)C3(C)C [Docetaxel]
Description: (§2)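 Breast cancer cell lines were grown in RPMI 1640 with 10% FBS on collagen I-coated 96-well plates and treated for 96 h (from 24 h after seeding) with 12 dilutions per drug, in triplicate. Growth was read by sulforhodamine B total-protein staining (absorbance 570 nm) relative to diluent control, and IC50 was calculated. The top dose was 1e-5 M for most drugs; Bortezomib went to 2e-5 M and Sirolimus and 17-AAG to 2e-6 M[…].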

Tamoxifen = compound: CC/C(=C(\c1ccccc1)c1ccc(OCCN(C)C)cc1)c1ccccc1 [Tamoxifen]
Description: as §2

Sorafenib = compound: CNC(=O)c1cc(Oc2ccc(NC(=O)Nc3ccc(Cl)c(C(F)(F)F)c3)cc2)ccn1 [Sorafenib]
Description: as §2

Paclitaxel = compound: CC(=O)O[C@H]1C(=O)[C@@]2(C)[C@H]([C@H](OC(=O)c3ccccc3)[C@]3(O)C[C@H](OC(=O)[C@H](O)[C@@H](NC(=O)c4ccccc4)c4ccccc4)C(C)=C1C3(C)C)[C@]1(OC(C)=O)CO[C@@H]1C[C@@H]2O [Paclitaxel]
Description: as §2

Panobinostat = compound: Cc1[nH]c2ccccc2c1CCNCc1ccc(/C=C/C(=O)NO)cc1 [Panobinostat]
Description: as §2

Brivanib = compound: Cc1cc2c(F)c(Oc3ncnn4cc(OC[C@@H](C)O)c(C)c34)ccc2[nH]1 [Brivanib]
Description: as §2

Vandetanib = compound: COc1cc2/c(=N/c3ccc(Br)cc3F)nc[nH]c2cc1OCC1CCN(C)CC1 [Vandetanib]
Description: as §2

Gefitinib = compound: COc1cc2ncnc(Nc3ccc(F)c(Cl)c3)c2cc1OCCCN1CCOCC1 [Gefitinib]
Description: as §2

Cisplatin = compound: N.N.[Cl][Pt][Cl] [Cisplatin]
Description: as §2

Nutlin-3 = compound: COc1ccc(C2=N[C@@H](c3ccc(Cl)cc3)[C@@H](c3ccc(Cl)cc3)N2C(=O)N2CCNC(=O)C2)c(OC(C)C)c1 [Nutlin-3]
Description: as §2

Doxorubicin = compound: COc1cccc2c1C(=O)c1c(O)c3c(c(O)c1C2=O)C[C@@](O)(C(=O)CO)C[C@@H]3O[C@H]1C[C@H](N)[C@H](O)[C@H](C)O1 [Doxorubicin]
Description: as §2

Methotrexate = compound: CN(Cc1cnc2nc(N)nc(N)c2n1)c1ccc(C(=O)N[C@@H](CCC(=O)O)C(=O)O)cc1 [Methotrexate]
Description: as §2

Dasatinib = compound: Cc1nc(Nc2ncc(C(=O)Nc3c(C)cccc3Cl)s2)cc(N2CCN(CCO)CC2)n1 [Dasatinib]
Description: as §2

Tipifarnib = compound: Cn1cncc1[C@@](N)(c1ccc(Cl)cc1)c1ccc2c(c1)c(-c1cccc(Cl)c1)cc(=O)n2C [Tipifarnib]
Description: as §2

Vorinostat = compound: O=C(CCCCCCC(=O)Nc1ccccc1)NO [Vorinostat]
Description: as §2

Mitoxantrone = compound: O=C1c2c(O)ccc(O)c2C(=O)c2c(NCCNCCO)ccc(NCCNCCO)c21 [Mitoxantrone]
Description: as §2

MI-219 = compound: CC(C)(C)C[C@H]1N[C@@H](C(=O)NCC[C@H](O)CO)[C@H](c2cccc(Cl)c2)[C@@]12C(=O)Nc1cc(Cl)c(F)cc12 [MI-219]
Description: as §2

5-Fluorouracil = compound: O=c1[nH]cc(F)c(=O)[nH]1 [5-Fluorouracil]
Description: as §2

Lapatinib = compound: CS(=O)(=O)CCNCc1ccc(-c2ccc3ncnc(Nc4ccc(OCc5cccc(F)c5)c(Cl)c4)c3c2)o1 [Lapatinib]
Description: as §2

Azacitidine = compound: Nc1ncn([C@@H]2O[C@H](CO)[C@@H](O)[C@H]2O)c(=O)n1 [Azacitidine]
Description: as §2

Serdemetan = compound: c1ccc2c(CCNc3ccc(Nc4ccncc4)cc3)c[nH]c2c1 [Serdemetan]
Description: as §2

Erlotinib = compound: C#Cc1cccc(Nc2ncnc3cc(OCCOC)c(OCCOC)cc23)c1 [Erlotinib]
Description: as §2

Sunitinib = compound: CCN(CC)CCNC(=O)c1c(C)[nH]c(/C=C2\C(=O)Nc3ccc(F)cc32)c1C [Sunitinib]
Description: as §2

ARQ197 = compound: O=C1NC(=O)[C@@H](c2cn3c4c(cccc24)CCC3)[C@@H]1c1c[nH]c2ccccc12 [ARQ197]
Description: as §2

Quisinostat = compound: Cn1cc(CNCC2CCN(c3ncc(C(=O)NO)cn3)CC2)c2ccccc21 [Quisinostat]
Description: as §2

Belinostat = compound: O=C(/C=C/c1cccc(S(=O)(=O)Nc2ccccc2)c1)NO [Belinostat]
Description: as §2

Decitabine = compound: Nc1ncn([C@H]2C[C@H](O)[C@@H](CO)O2)c(=O)n1 [Decitabine]
Description: as §2

Test System	IC50 (SRB growth assay) (Sirolimus) [pM]	IC50 (SRB growth assay) (17-AAG) [nM]	IC50 (SRB growth assay) (Bortezomib) [nM]	IC50 (SRB growth assay) (Docetaxel) [pM]	IC50 (SRB growth assay) (Tamoxifen) [µM]	IC50 (SRB growth assay) (Sorafenib) [µM]	IC50 (SRB growth assay) (Paclitaxel) [nM]	IC50 (SRB growth assay) (Panobinostat) [nM]	IC50 (SRB growth assay) (Brivanib) [µM]	IC50 (SRB growth assay) (Vandetanib) [µM]	IC50 (SRB growth assay) (Gefitinib) [µM]	IC50 (SRB growth assay) (Cisplatin) [µM]	IC50 (SRB growth assay) (Nutlin-3) [µM]	IC50 (SRB growth assay) (Doxorubicin) [nM]	IC50 (SRB growth assay) (Methotrexate) [nM]	IC50 (SRB growth assay) (Dasatinib) [µM]	IC50 (SRB growth assay) (Tipifarnib) [nM]	IC50 (SRB growth assay) (Vorinostat) [nM]	IC50 (SRB growth assay) (Mitoxantrone) [nM]	IC50 (SRB growth assay) (MI-219) [µM]	IC50 (SRB growth assay) (5-Fluorouracil) [µM]	IC50 (SRB growth assay) (Lapatinib) [µM]	IC50 (SRB growth assay) (Azacitidine) [µM]	IC50 (SRB growth assay) (Serdemetan) [µM]	IC50 (SRB growth assay) (Erlotinib) [µM]	IC50 (SRB growth assay) (Sunitinib) [µM]	IC50 (SRB growth assay) (ARQ197) [nM]	IC50 (SRB growth assay) (Quisinostat) [nM]	IC50 (SRB growth assay) (Belinostat) [nM]	IC50 (SRB growth assay) (Decitabine) [µM]
EVSA-T	53.6	5.76	2.74	400	4.96	2.24	1.09	3.19	> 10	2.02	7.52	> 10	> 10	8.01	6030	> 10	18.5	380	2.68	> 10	1.74	2.53	3.84	1.13	> 10	2.2	218	1.36	85.1	2.25
HCC 38	166	72.2	5.22	510	> 10	5.26	1.39	6.57	> 10	5.54	> 10	> 10	> 10	5.51	12.3	0.115	294	610	1.89	> 10	2.79	5.52	0.746	0.443	> 10	9.91	131	3.31	250	0.132
HCC 70	222	37.3	2.84	539	> 10	6.25	2.08	8.26	> 10	3.96	9.36	> 10	> 10	40.6	30.1	> 10	85.1	781	74.3	> 10	5.36	3.75	2.38	1.57	> 10	6.81	324	5.48	356	2.36
